We go through three molecules from patent US9775819B2, “Oral solid dosage form containing nanoparticles and process of formulating the same using fish gelatin” (R.P. SCHERER TECHNOLOGIES, LLC, priority 2009, dated 2017).

Structures are written as SMILES.

The data set in a line: Particle size (d50) by laser light diffraction, Malvern Mastersizer 2000. Type of data set: physicochemical. The note with it: unmilled active ingredient. The text has this: During step (a) of the method of the invention, the suspension may be recycled if necessary and the process of particle size reduction continued until the desired nanoparticle size of the active ingredient is obtained. The size of the nanoparticles within the nanosuspension is typically measured using well known techniques, such as laser light diffraction methodology using, e.g., a Malvern Mastersizer 2000 particle size analyzer (Malvern Instruments, Westborough Mass.). Particle size measurements are typically described using parameters such as d50, a parameter that represents the size above and below which one finds 50% of the volume of all particles, also known as the volume weighted median. Accordingly, d50 represents a median particle size value. According to the invention, the solution is milled until a d50 ranging preferably from about 1 nm to about 900 nm, more preferably from about 10 nm to about 800 nm, and most preferably from about 50 nm to about 700 nm is achieved.
An oral solid dosage form comprising the active ingredient naproxen and excipients fish gelatin as nanostabilizer (SMW fish gelatin grade from Norland Products Inc.—Example 1A; and DFG grade from Norland Products Inc.—Example 1B) and mannitol as bulking agent was prepared. An aqueous solution of 5% fish gelatin and 3% mannitol was prepared; then naproxen was added to this solution to form a suspension slurry. The suspension slurry was charged into a 600 cc chamber-size Dyno® Mill containing zirconium milling media. Naproxen concentration in the milling slurry was 15% by weight. Milling was performed on recirculating suspension for 1.5 hours using the default milling conditions for this equipment. The resultant bulk nanosuspension was discharged from the mill, and 250 mg unit doses were accurately dispensed into 0.25 mL capacity blister pockets using an IVEK pump controlled using a Digispense unit. Blister pockets were frozen in an Air Products CM2000 freezer using liquid nitrogen as coolant and a 3 minute freezing time, then held in a freezer until transfer to pre-cooled freeze-drier shelves. […]
As for `COc1ccc2c(c1)c(CC(=O)O)c(C)n2C(=O)c1ccc(Cl)cc1` [indomethacin], the d50 was found to be 37 μm.

`COc1ccc2cc([C@H](C)C(=O)O)ccc2c1` [naproxen] gave a d50 of 22 μm.

For `CCOc1ccc(NC(C)=O)cc1` [phenacetin], the d50 amounted to 83 μm.
